US8183374B2, “Piperidine and piperazine derivatives” (M's Science Corporation, priority 2006, dated 2012)

Assays:
σ1 receptors = target: T1, σ1 receptors (Homo sapiens, UniProt Q99720); experiment: σ1 receptor binding assay; settings: HEK-293 cell membranes, 10 nM (+)-[3H]-pentazocine, 120 min at 37° C.
T1 construct: endogenous in cells; host or cells: HEK-293 cell membranes
Procedure: Sigma-1 (σ1) and sigma-2 (σ2) receptor binding assays are carried out in membranes from HEK-293 (Human Embryonic Kidney) cells.
Confluent HEK-293 cells are harvested in PBS/5 mM EDTA. They are centrifuged at 2000 rpm for 5 min and then washed two times in PBS. Cells are homogenized in 20 mM Tris-HCL (pH=7.5) containing 5 mM EDTA, 0.5 mM PMSF and 0.5 μg/mL leupeptin using a Dounce homogenizer and sonicated for 5 minutes.
Nuclear debris and intact cells are removed by centrifugation at 3000 rpm for 10 minutes at 4° C. […]
Proteins are determined using the Bio Rad Protein Assay Dye Reagent and the membranes are aliquoted and frozen at −80° C. […]
Total binding is determined by incubating 50 μg of HEK-293 cell membranes with 10 nM (+)−[^3H]-pentazocine (Perkin-Elmer, 35 Ci/mmol) and assay buffer (50 mM Tris-HCl, pH=8.3) in a total volume of 200 μl. Non specific binding is determined in the presence of 10 μM unlabeled pentazocine. […] The filters are washed three times and the membrane-bound radioactivity is determined in a Microbeta scintillation counter. […]
Specific binding is determined by subtraction of non specific binding from total binding. […]

rats = settings: microinjection/injection in rats; cited from earlier work

T1 sequence (Q99720 whole entry): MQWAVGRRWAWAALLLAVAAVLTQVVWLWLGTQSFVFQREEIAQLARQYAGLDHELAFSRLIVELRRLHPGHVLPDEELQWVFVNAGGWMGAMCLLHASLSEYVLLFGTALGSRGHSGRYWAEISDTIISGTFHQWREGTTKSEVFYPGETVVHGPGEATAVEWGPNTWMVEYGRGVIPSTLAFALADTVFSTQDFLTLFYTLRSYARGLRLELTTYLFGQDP

Structure (SMILES)	IC50 in the σ1 receptor binding assay (σ1 receptors)	neck dystonia in rats (rats)
COc1cc(CC(=O)N2CCN(CCOc3ccccc3F)CC2)cc(OC)c1OC.Cl [Example 41, 1-{4-[2-(2-Fluorophenoxy)Ethyl]Piperazin-1-yl}-2-(3,4,5-Trimethoxy-Phenyl)Ethanone Hydrochloride]	a little less active	
COc1cc(CCC(=O)N2CCN(CCOc3ccc(F)cc3)CC2)cc(OC)c1OC.Cl [Example 35, 1-{4-[2-(4-Fluorophenoxy)Ethyl]Piperazin-1-yl}-3-(3,4,5-Trimethoxy-Phenyl)Propan-1-One Hydrochloride]	a little less active	
COc1ccc(CCN2CCN(CCCc3ccccc3)CC2)cc1OC [SA-4503, 1-[2-(3,4-dimethoxyphenyl)ethyl]-4-(3-phenylpropyl)piperazine]		had no effect
Cc1ccccc1NC(=N)Nc1ccccc1C [DTG, 1,3-di-2-tolyl-guanidine]		induced neck dystonia
